Results on 11 compounds are retold here after US12662489B2 (Sitryx Therapeutics Limited, priority 2023, dated 2026).

Molecules are shown by their SMILES.

Experiment [1] addresses T1, MTHFD1 recombinant human enzyme (Homo sapiens, UniProt P11586).
T1 sequence (P11586 2-291 limits assumed): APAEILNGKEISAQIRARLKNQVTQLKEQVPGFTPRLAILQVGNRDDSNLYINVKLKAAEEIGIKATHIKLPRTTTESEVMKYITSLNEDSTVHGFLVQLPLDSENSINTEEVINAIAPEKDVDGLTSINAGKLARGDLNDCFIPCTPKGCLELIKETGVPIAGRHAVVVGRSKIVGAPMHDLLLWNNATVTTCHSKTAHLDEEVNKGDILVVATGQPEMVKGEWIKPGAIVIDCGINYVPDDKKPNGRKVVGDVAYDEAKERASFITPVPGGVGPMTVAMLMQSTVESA
The experiment in a line: MTHFD1 inhibition assay (NAD(P)H-Glo luminescence). To be noted: MTHFD1 IC50, recombinant human enzyme 200 nM, NADP, band.

Experiment [2] has as its target T2, MTHFD2 recombinant human enzyme (Homo sapiens, UniProt P13995).
T2 sequence (P13995 36-350): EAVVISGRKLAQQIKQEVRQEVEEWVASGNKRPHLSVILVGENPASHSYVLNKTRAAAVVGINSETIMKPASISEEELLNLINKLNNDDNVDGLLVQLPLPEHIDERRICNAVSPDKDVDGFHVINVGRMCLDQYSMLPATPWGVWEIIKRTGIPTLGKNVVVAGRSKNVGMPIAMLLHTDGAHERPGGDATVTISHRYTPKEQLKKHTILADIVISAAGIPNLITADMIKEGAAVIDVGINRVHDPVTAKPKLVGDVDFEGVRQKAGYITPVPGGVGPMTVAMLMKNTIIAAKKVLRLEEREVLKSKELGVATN
The experiment in a line: MTHFD2 inhibition assay (NAD(P)H-Glo luminescence). The note with it: for MTHFD1/MTHFD2 IC50 ratio: selectivity of MTHFD2 inhibition over MTHFD1, band.

As to `CCOc1c(C(=O)NS(=O)(=O)N2CC3(CCC3)C2)ccc(C(=O)N2CCc3c(c(=O)oc4c(C)c(N5CCN(C)[C@@H](COC)C5)cc(C)c34)C2)c1F` [Example 233], in experiment [1], the IC50 was in the range of 10 to 100 nM. In addition, in experiment [2], the IC50 is 10 to 100 nM and the “MTHFD1/MTHFD2 IC50 ratio” value is reported as “F (<3)”.
Turning to `CCOc1c(C(=O)NS(=O)(=O)N2C3CCCC2CC3)ccc(C(=O)N2CCc3c(c(=O)oc4c(C)c(N5CCN(C)[C@@H](COC)C5)cc(C)c34)C2)c1F` [Example 234], the IC50 in experiment [1] was 10 to 100 nM. In experiment [2], the IC50 lay in the range of 10 to 100 nM and the “MTHFD1/MTHFD2 IC50 ratio” value was “F (<3)”.
Take `CCOc1c(C(=O)NS(=O)(=O)N2CC3CCC(C3)C2)ccc(C(=O)N2CCc3c(c(=O)oc4c(C)c(N5CCN(C)[C@@H](COC)C5)cc(C)c34)C2)c1F` [Example 235]: the IC50 in experiment [1] lay in the range of 100 to 1000 nM. In experiment [2], the IC50 lay in the range of 10 to 100 nM and the “MTHFD1/MTHFD2 IC50 ratio” value is “G (^ 3 to 9.0)”.
With `CCOc1c(C(=O)NS(=O)(=O)N2C3CCCC2CC3)ccc(C(=O)N2CCc3c(c(=O)oc4c(C)c(N5CCN(C)[C@@H](COC)C5)ccc34)C2)c1F` [Example 236], the IC50 in experiment [1] and in experiment [2] was 10 to 100 nM in each case. For the same compound, the “MTHFD1/MTHFD2 IC50 ratio” value in experiment [2] was “F (<3)”.
For the compound `CCOc1c(C(=O)NS(=O)(=O)N2CC3CCC(C3)C2)ccc(C(=O)N2CCc3c(c(=O)oc4c(C)c(N5CCN(C)[C@@H](COC)C5)ccc34)C2)c1F` [Example 237], in experiment [1], the IC50 was in the range of 10 to 100 nM. Further, in experiment [2], the IC50 was in the range of 10 to 100 nM and the “MTHFD1/MTHFD2 IC50 ratio” value is listed as “F (<3)”.
On to `COC[C@H]1CN(c2cc(C)c3c4c(c(=O)oc3c2C)CN(C(=O)c2ccc(C(=O)NS(=O)(=O)N(C)C3CCCC3)c(OC)c2F)CC4)CCN1C` [Example 238], for which the IC50 in experiment [1] was in the range of 100 to 1000 nM. In experiment [2], the IC50 is 10 to 100 nM and the “MTHFD1/MTHFD2 IC50 ratio” value is recorded as “H (>9.0 to 30)”.
The matching figures for `COC[C@H]1CN(c2cc(C)c3c4c(c(=O)oc3c2C)CN(C(=O)c2ccc(C(=O)NS(=O)(=O)N3CCCCC3)c(OC)c2F)CC4)CCN1C` [Example 239]: 100 to 1000 nM, 10 to 100 nM and “H (>9.0 to 30)”.
Turning to `COC[C@H]1CN(c2cc(C)c3c4c(c(=O)oc3c2C)CN(C(=O)c2ccc(C(=O)NS(=O)(=O)N3CCC(F)CC3)c(OC)c2F)CC4)CCN1C` [Example 240], in experiment [1], the 50% inhibitory concentration (IC50) was in the range of 100 to 1000 nM. In experiment [2], the IC50 was 10 to 100 nM and the “MTHFD1/MTHFD2 IC50 ratio” value was “H (>9.0 to 30)”.
For `CCc1c(C(=O)NS(=O)(=O)N2C3CCC2CC3)ccc(C(=O)N2CCc3c(c(=O)oc4c(C)c(N5CCN(C)[C@@H](COC)C5)cc(C)c34)C2)c1F` [Example 242], the IC50 in experiment [1] is 100 to 1000 nM; in experiment [2], 10 to 100 nM. Also, the “MTHFD1/MTHFD2 IC50 ratio” value in experiment [2] is recorded as “H (>9.0 to 30)”.
Turning to `COC[C@H]1CN(c2cc(C)c3c4c(c(=O)oc3c2C)CN(C(=O)c2cc(F)c(C(=O)NS(=O)(=O)N3CCCC3)cc2N(C)C)CC4)CCN1C` [Example 243], the IC50 in experiment [1] lay within 1000 to 5000 nM. Besides, in experiment [2], the IC50 lay in the range of 10 to 100 nM and the “MTHFD1/MTHFD2 IC50 ratio” value is “J (>30)”.
In the same order, the values of `[2H]C([2H])([2H])Oc1c(C(=O)NS(=O)(=O)N2C3CCC2CC3)ccc(C(=O)N2CCc3c(c(=O)oc4c(C)c(N5CCN(C)[C@@H](COC)C5)cc(C)c34)C2)c1F` [Example 252, (R)-N-((7-azabicyclo[2.2.1]heptan-7-yl)sulfonyl)-3-fluoro-2-(methoxy-d3)-4-(8-(3-(methoxymethyl)-4-methylpiperazin-1-yl)-7,10-dimethyl-5-oxo-1,3,4,5-tetrahydro-2H-chromeno[3,4-c]pyridine-3-carbonyl)benzamide] are 100 to 1000 nM, 1 to 10 nM and “J (>30)”.
